Residues, ends and D or L forms follow the SMILES beside them. *: point of attachment. AFC = O=c1cc(C(F)(F)F)c2ccc(N*)cc2o1; Cbz = O=C(OCc1ccccc1)*
Columns and labels:
[1] = tested on: purified Taenia solium cysteine protease; experiment: Competitor assay of low Vmax substrates (vehicles) against high Vmax substrate cocktails (Step III), purified protease; assay type: biochemical; conditions: for inhibition with the 1.4% cocktail: 1.4% cocktail (Z-FR-AFC 1X10^-6 M); for inhibition with the final cocktail (7.4%): 7.4% cocktail (five high Vmax substrates, 1X10^-6 M each); for Ki of vehicle: Dixon plot, data not shown
Procedure: The top 1.4% of substrates (out of 67) in the full panel of substrates with the highest Vmax values were chosen to compose a "TOP 1.4% cocktail". (We employed "Vmax" here although Kcat could also be used). Due to the lower number of substrates, a percentage was not chosen for the "BOTTOM %" substrates. Alternately, all substrates which were not cleaved as determined by a value of 10 uM/hr or less, were chosen to be tested in this step for competitive ability. Hereinafter the term "vehicle" will represent low Vmax substrates that were capable of inhibiting cleavage of the percent cocktails. In this instance, we tested for "vehicles" which inhibited cleavage of the TOP 1.4% cocktail (they were delivered into the active site). Based upon our results from Step II, the top 1.4% cocktail was composed of Z-Phe-Arg-AFC, the highest cleaved substrate.
The experiment began with a competitor test between the noncleaved low Vmax substrates and the highest Vmax substrate, Z-Phe-Arg-AFC. Concentrations were varied between the low Vmax substrate and Z-Phe-Arg-AFC, as described above under "refinement of assay" until a relative inhibition profile was obtained.
The mixture was allowed to equilibrate for a period of 30 minutes. Finally, active purified enzyme was added to the tubes at a concentration that was always 50 times less than the concentration of the high and low Vmax substrates, respectively, in order to insure saturation conditions. This concentration varied from purification to purification and the amount added depended upon the yield and specific activity of the purified protease.
Positive controls were set up in a manner similar to that described for test controls, except that solvent was added in substitution for the low Vmax substrate (in a volume equal to the low Vmax volume addition). All of the substrates could be dissolved in dimethylsulfoxide (DMSO), and therefore, this was the solvent of choice. Negative controls were set up by adding the low Vmax and the high Vmax substrate in a tube without the protease. All potential non-proteolytic induced liberation of AFC was therefore controlled for in this tube (a feature which also monitored stability of the AFC substrates, since these substrates will freely liberate AFC when unstable). A tube set was established for this negative control.
All controls were set up in triplicate, and experiments were repeated a minimum of five times. The assays were incubated at 37°C, for 18 hours overnight.
Percent inhibition was calculated as: %Inhibition = ((AFC positive for "Y"−AFC negative for "Y")−(AFC test−AFC negative for "Y"))/(AFC positive for "Y"−AFC negative for "Y") × 100 [formula]
A 2.9% cocktail of the high Vmax substrates was made. This was composed of Z-FR-AFC and the second most cleaved substrate, Z-FAR-AFC. The vehicles promoted from the initial screenings above were again tested for competitive inhibition ability with the new cocktails. Their concentrations were set identically to those which were "fixed" in the previous protocols. In other words, 8X10^-6 M of the vehicle was added to the culture tube with 1X10^-6 M of Z-FR-AFC and 1X10^-6 M of Z-FAR-AFC. Active protease was added last at a concentration that was 50 times less than the concentration of the high Vmax substrate (to ensure saturating conditions).
In similar experimental fashion, a 4.4%, 5.9%, and 7.4% cocktail were tested with each of the promising vehicles. Each increase in the percentage represented an increase by an additional high Vmax substrate. Each of the individual components in the cocktail were added at 1X10^-6 M each, to 8X10^-6 M of the vehicle. The composition of the cocktails was as follows: 4.4% cocktail: Z-FR-AFC, Z-FAR-AFC, and Z-AAK-AFC (third highest cleaved substrate); 5.9% cocktail: Z-FR-AFC, Z-FAR-AFC, Z-AAK-AFC, and AP-AFC (fourth highest cleaved substrate); 7.4% cocktail: […], Z-FAR-AFC, Z-AAK-AFC, AP-AFC, and Z-VLR-AFC. […]

[2] = tested on: purified Taenia solium cysteine protease; experiment: Substrate cleavage screen of AFC-linked peptides (Step II), purified protease; assay type: biochemical; conditions: 0.4 M Citrate, pH 4.9, 0.01 M cysteine, 18 h, 37 °C
Procedure: In this step, the most efficacious substrate for detection of the cysteine protease (high Kcat substrate) was determined in vitro along with those substrates which were not well cleaved (low kcat substrates). From this point forward, the following conditions refer to all assays: "assay buffer" refers to 0.4 M Citrate, pH 4.9 (the pH optima of the protease). Incubation time was 18 hours at 37°C. These conditions were determined by our preliminary data to be best for kinetic evaluation of the protease. […] The experiments were conducted in 6X50 […] Borosilicate mini-culture tubes (Fisher Scientific), and a fluorometer (Turner) was employed for detection of AFC cleavage.
Since the full 8,420 amino acid possibilities for cleavage were not available, representative substrates were employed. […] In order to choose this subset, representative amino acids (i.e., selected from the categories of acidic, basic, nonpolar, uncharged) were chosen so as to create as many categories of motifs as feasible for the P3-P1 positions with a set of 67 small peptides (see lists at Fig. 4a and Fig. 4b). The target cysteine protease from Taenia solium was isolated using the purification methods described previously in the patent WO 00/63350.
Approximately 1 ug (or a proteolytically detectable amount) of the purified target cysteine protease was incubated individually, with 1 ug of each of the available substrates in 500 uL of assay buffer. During this setup, the substrate was pre-incubated in the assay buffer for a short period of time (20 minutes) in order to reach an equilibrated status before the addition of the protease. Cleavage assessments were based upon the property of the protease to cleave synthetic peptide substrates linked at the C-terminus to 7-Amino-4-Trifluoromethyl Coumarin (AFC) as previously described. AFC linked tripeptides, dipeptides, and monopeptides, (with a variety of permutations at P3-P1) were available from Enzyme Systems Products (Livermore, CA), and were used as the source of the subset. Following incubation of enzyme preparations overnight (18 h, 37 °C) with peptide in assay buffer (Citrate, pH 4.9, supplemented with 0.01 M cysteine), free AFC concentrations were measured fluorometrically (excitation 405 nm, emission 505 nm). The proteolytic cleavage released the AFC group, which was measurable as a free molecule by a standard fluorometer and converted into molar quantities, based upon a previously established standard curve. The simplicity of AFC detection by the fluorometer was a key factor which expedited and simplified the procedures.
In the assay, 1 ug of the purified Taenia cysteine protease was added to a saturating amount of Z-Phe-Arg-AFC (4X10^-5 M) in assay buffer. The experiment was conducted in triplicate and repeated at least 5 times until we were certain that variability in AFC cleavage was not statistically significant.
Vmax for the cleavage of substrates by the purified target protease and Vmax for substrates cleaved by the crude mix protease were each calculated using conventional kinetic modeling calculations already described in the art.

Compound	inhibition with the 1.4% cocktail ([1]; vehicle 8X10^-6 M)	inhibition with the final cocktail (7.4%) ([1]; vehicle 8X10^-6 M) [%]	Ki of vehicle [1]	cleavage of AFC substrate (Vmax) [2]	V Value ([1]; V = P * M, P inhibition with first (1.4%) cocktail, M with last (7.4%) cocktail, vehicle 8X10^-6 M, each cocktail substrate 1X10^-6 M)	cleavage of AFC substrate (Vmax) ([2]; listed as M-LY-AFC)
CC(C)C[C@H](NC(=O)OCc1ccccc1)C(=O)N[C@@H](CC(C)C)C(=O)N[C@@H](CC(C)C)C(=O)Nc1ccc2c(C(F)(F)F)cc(=O)oc2c1 [Z-LLL-AFC, Z-Leu-Leu-Leu-AFC] (Cbz-Leu-Leu-Leu-{AFC})	greater than 20%	≥ 50	low Ki value	noncleavable		
CC(C)C[C@H](NC(=O)OCc1ccccc1)C(=O)N[C@@H](CC(C)C)C(=O)N[C@@H](Cc1ccc(O)cc1)C(=O)Nc1ccc2c(C(F)(F)F)cc(=O)oc2c1 [Z-LLY-AFC, Z-Leu-Leu-Tyr-AFC] (Cbz-Leu-Leu-Tyr-{AFC})	greater than 20%	≥ 50	low Ki value	noncleavable		
Mu-Leu-Tyr-AFC [Mu-LY-AFC]		≥ 50	low Ki value	not cleaved	0.450	noncleavable

Source: patent EP1379634B1 (THE UNIVERSITY OF GEORGIA RESEARCH FOUNDATION, INC., priority 2001, dated 2002)
